Measurements taken from the NIST ThermoML archive (doi:10.1016/j.jct.2007.01.012).
Numbers after ± are expanded uncertainties.

Details: 101.33 kPa, Liquid

| Structure (SMILES) | mass density (298.15 K) [kg/m3] | mass density (303.15 K) [kg/m3] | mass density (313.15 K) [kg/m3] |
| --- | --- | --- | --- |
| CCn1cc[n+](C)c1.COCCOCCOS(=O)(=O)[O-] [1-ethyl-3-methylimidazolium 2-(2-methoxyethoxy) ethylsulfate] | 1236.5 ± 2.9 | 1232.6 ± 2.9 | 1225.6 ± 2.8 |
| CO [methanol] | 786.7 ± 1.4 | 782 ± 1.4 | 772.7 ± 1.4 |
